Reference: patent US20250263424A1, “KRAS INHIBITORS” (Bristol-Myers Squibb Company, priority 2022, published 2025)

What follows are compounds tested against Recombinant GMPPNP-loaded KRAS G12C (KRAS-G12C(ON), active form) (Homo sapiens, UniProt P01116, G12C) (assay: KRAS G12C RAF Disruption Assay (HTRF)). Conditions: GMPPNP-loaded KRAS G12C 5 nM, GST-RAF1 RBD 9 nM, values given in μM, read-out: KRASG12C RAF Disruption Assay (IC50).
Assay type: biochemical
Experimental: This is a functional assay that measures activity of compounds against […]., the active form of KRAS G12C. Recombinant GMPPNP-loaded KRAS G12C (5 nM) was treated with compound at room temperature for 20 minutes in assay buffer (50 mM Tris pH 7.5, 100 mM NaCl, 1 mM MgCl2, 1 mM DTT, 100 μg/ml BSA). Recombinant GST-RAF1 RBD (9 nM) was added, and the reaction mixture was incubated for 20 minutes. SA-Tb (0.25 nM) was added, and the reaction mixture was incubated for 3 hours. HTRF signal was measured (PerkinElmer Envision), the signal ratio (λem 520/λem 495) was calculated, and IC50 values were calculated from the dose-response curve.

Recombinant GMPPNP-loaded KRAS G12C (KRAS-G12C(ON), active form), sequence (P01116 1-188 isoform P01116-2 G12C): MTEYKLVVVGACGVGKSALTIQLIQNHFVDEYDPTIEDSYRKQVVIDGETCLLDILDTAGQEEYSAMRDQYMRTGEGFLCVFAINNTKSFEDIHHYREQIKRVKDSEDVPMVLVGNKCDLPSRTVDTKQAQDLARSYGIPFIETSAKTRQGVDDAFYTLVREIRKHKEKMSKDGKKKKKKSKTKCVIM

Point of comparison: `Cc1cc(N)nc(-c2c(Cl)cc3c(N4CCN(C(=O)/C(F)=C/c5nccs5)[C@@H](CC(N)=O)C4)nc(OC[C@@H]4CCCN4C)nc3c2F)c1C(F)(F)F` (atropisomer, axis not shown; (M)) [Example 47, 2-[(2S)-4-[(7M)-7-[6-amino-4-methyl-3-(trifluoromethyl)pyridin-2-yl]-6-chloro-8-fluoro-2-{[(2S)-1-methylpyrrolidin-2-yl]methoxy}quinazolin-4-yl]-1-[(2Z)-2-fluoro-3-(thiazol-2-yl)prop-2-enoyl]piperazin-2-yl]acetamide], IC50 1.33 µM. Against it:
- Cc1cc(N)nc(-c2c(Cl)cc3c(N4CC5CCC(C4)N5C(=O)/C(F)=C/c4ccccn4)nc(OC[C@@]45CCCN4C[C@H](F)C5)nc3c2F)c1C(F)(F)F [Example 7, (Z)-1-((1R,5S)-3-((7M)-7-(6-amino-4-methyl-3-(trifluoromethyl)pyridin-2-yl)-6-chloro-8-fluoro-2-(((2R,7aS)-2-fluorotetrahydro-1H-pyrrolizin-7a(5H)-yl)methoxy)quinazolin-4-yl)-3,8-diazabicyclo[3.2.1]octan-8-yl)-2-fluoro-3-(pyridin-2-yl)prop-2-en-1-one] — 1.5-fold higher, 2 µM
- C[C@H]1CN(C(=O)/C(F)=C/c2nccs2)CCN1c1nc(OC[C@@H]2CCCN2C)nc2c(F)c(-c3cccc4cccc(Cl)c34)c(Cl)cc12 [Example 1, (Z)-1-((3S)-4-(6-chloro-7-(8-chloronaphthalen-1-yl)-8-fluoro-2-(((S)-1-methylpyrrolidin-2-yl)methoxy)quinazolin-4-yl)-3-methylpiperazin-1-yl)-2-fluoro-3-(thiazol-2-yl)prop-2-en-1-one] — 37-fold higher, 49 µM
- C#Cc1c(F)ccc2cc(O)cc(-c3c(Cl)cc4c(N5CC6CCC(C5)N6C(=O)/C(F)=C/c5ccccn5)nc(OC[C@@H]5CCCN5C)nc4c3F)c12 (single isomer, unassigned) [Example 20, Isomer 1] — 12-fold higher, 16.5 µM

Same assay, conditions: GMPPNP-loaded KRAS G12C 5 nM, GST-RAF1 RBD 9 nM, values in nM, read-out: KRASG12C RAF Disruption Assay (IC50)

Point of comparison: `COc1ccc(Cl)cc1-c1ccc2c(N3CCN(C(=O)/C(F)=C/c4ncccn4)[C@@H](CC#N)C3)nc(OC[C@@H]3CCCN3C)nc2c1F` [Example 63, 2-((S)-4-(7-(5-chloro-2-methoxyphenyl)-8-fluoro-2-(((S)-1-methylpyrrolidin-2-yl)methoxy)quinazolin-4-yl)-1-((Z)-2-fluoro-3-(pyrimidin-2-yl)acryloyl)piperazin-2-yl)acetonitrile], IC50 9.8 µM. Against it:
- C#Cc1c(F)ccc2cc(O)cc(-c3ccc4c(N5CCN(C(=O)/C(F)=C/c6nccs6)CC5)nc(OC[C@@]56CCCN5C[C@H](F)C6)nc4c3F)c12 [Example 72, (Z)-1-(4-(7-(8-ethynyl-7-fluoro-3-hydroxynaphthalen-1-yl)-8-fluoro-2-(((2R,7aS)-2-fluorotetrahydro-1H-pyrrolizin-7a(5H)-yl)methoxy)quinazolin-4-yl)piperazin-1-yl)-2-fluoro-3-(thiazol-2-yl)prop-2-en-1-one] — 4900-fold lower, 0.002 µM
- CCc1cccc2cccc(-c3ccc4c(N5CCN(C(=O)/C(F)=C/c6nccs6)[C@@H](CC#N)C5)nc(OC[C@@H]5CCCN5C)nc4c3F)c12 [Example 60, 2-((S)-4-(7-(8-ethylnaphthalen-1-yl)-8-fluoro-2-(((S)-1-methylpyrrolidin-2-yl)methoxy)quinazolin-4-yl)-1-((Z)-2-fluoro-3-(thiazol-2-yl)acryloyl)piperazin-2-yl)acetonitrile] — 58-fold lower, 0.17 µM
- Cc1cc2[nH]ncc2c(-c2ccc3c(N(C)[C@@H]4CCN(C(=O)/C(F)=C/c5ccccn5)C4)nc(OC[C@@]45CCCN4C[C@H](F)C5)nc3c2F)c1Cl [Example 83, (Z)-1-((3R)-3-((7-(5-chloro-6-methyl-1H-indazol-4-yl)-8-fluoro-2-(((2R,7aS)-2-fluorotetrahydro-1H-pyrrolizin-7a(5H)-yl)methoxy)quinazolin-4-yl)(methyl)amino)pyrrolidin-1-yl)-2-fluoro-3-(pyridin-2-yl)prop-2-en-1-one] — 450-fold lower, 0.022 µM
- N#CC[C@H]1CN(c2nc(OC[C@@]34CCCN3C[C@H](F)C4)nc3c(F)c(-c4cccc5cccc(Cl)c45)ccc23)CCN1C(=O)/C(F)=C/c1ncccn1 [Example 42, 2-((S)-4-(7-(8-chloronaphthalen-1-yl)-8-fluoro-2-(((2R,7aS)-2-fluorotetrahydro-1H-pyrrolizin-7a(5H)-yl)methoxy)quinazolin-4-yl)-1-((Z)-2-fluoro-3-(pyrimidin-2-yl)acryloyl)piperazin-2-yl)acetonitrile] — 110-fold lower, 0.088 µM
- CN1CCC[C@H]1COc1nc(N2CCN(C(=O)/C(F)=C/c3ncccn3)[C@@H](CC#N)C2)c2ccc(-c3c(O)cccc3F)c(F)c2n1 [Example 55, 2-((2S)-1-((Z)-2-fluoro-3-(pyrimidin-2-yl)acryloyl)-4-(8-fluoro-7-(2-fluoro-6-hydroxyphenyl)-2-(((S)-1-methylpyrrolidin-2-yl)methoxy)quinazolin-4-yl)piperazin-2-yl)acetonitrile] — 9.8-fold lower, 1 µM
- Cc1ccc2[nH]ncc2c1-c1ccc2c(N3CCN(C(=O)/C(F)=C/c4ncccn4)[C@@H](CC#N)C3)nc(OC[C@@H]3CCCN3C)nc2c1F [Example 52, 2-((2S)-1-((Z)-2-fluoro-3-(pyrimidin-2-yl)acryloyl)-4-(8-fluoro-7-(5-methyl-1H-indazol-4-yl)-2-(((S)-1-methylpyrrolidin-2-yl)methoxy)quinazolin-4-yl)piperazin-2-yl)acetonitrile] — 22-fold lower, 0.45 µM
- CN1CCC[C@H]1COc1nc(N2CCN(C(=O)/C(F)=C/c3ccccn3)[C@@H](CC#N)C2)c2ccc(-c3cc(O)cc4ccccc34)c(F)c2n1 [Example 24, 2-((S)-1-((Z)-2-fluoro-3-(pyridin-2-yl)acryloyl)-4-(8-fluoro-7-(3-hydroxynaphthalen-1-yl)-2-(((S)-1-methylpyrrolidin-2-yl)methoxy)quinazolin-4-yl)piperazin-2-yl)acetonitrile] — 450-fold lower, 0.022 µM
- Cc1cc(N)nc(-c2c(Cl)cc3c(N4C[C@]5(NC(=O)/C(F)=C/c6ccccn6)CC[C@H]4C5)nc(OC[C@]45CCCN4C[C@H](F)C5)nc3c2F)c1C(F)(F)F (atropisomer, axis not shown; (M)) [Example 43, (2Z)-N-[(1S,4S)-2-[(7M)-2-{[(2R,7aR)-2-fluoro-hexahydro-1H-pyrrolizin-7a-yl]methoxy}-7-[6-amino-4-methyl-3-(trifluoromethyl)pyridin-2-yl]-6-chloro-8-fluoroquinazolin-4-yl]-2-azabicyclo[2.2.1]heptan-4-yl]-2-fluoro-3-(pyridin-2-yl)prop-2-enamide] — 52-fold lower, 0.19 µM
- COc1ccc(Cl)cc1-c1ccc2c(N3CCN(C(=O)/C(F)=C/c4ccccn4)[C@@H](CC#N)C3)nc(OC[C@@H]3CCCN3C)nc2c1F [Example 61, 2-((S)-4-(7-(5-chloro-2-methoxyphenyl)-8-fluoro-2-(((S)-1-methylpyrrolidin-2-yl)methoxy)quinazolin-4-yl)-1-((Z)-2-fluoro-3-(pyridin-2-yl)acryloyl)piperazin-2-yl)acetonitrile] — 3.5-fold lower, 2.8 µM
- C#Cc1cccc2cccc(-c3ccc4c(N5CCN(C(=O)/C(F)=C/c6ccccn6)[C@@H](CC#N)C5)nc(OC[C@@]56CCCN5C[C@H](F)C6)nc4c3F)c12 [Example 85, 2-((S)-4-(7-(8-ethynylnaphthalen-1-yl)-8-fluoro-2-(((2R,7aS)-2-fluorotetrahydro-1H-pyrrolizin-7a(5H)-yl)methoxy)quinazolin-4-yl)-1-((Z)-2-fluoro-3-(pyridin-2-yl)acryloyl)piperazin-2-yl)acetonitrile] — 390-fold lower, 0.025 µM
- Cc1cc(N)nc(-c2c(Cl)cc3c(N4CC[C@@H]5CC[C@H](C4)N5C(=O)/C(F)=C/c4nccs4)nc(OC[C@]45CCC[C@H]4N(C)CCC5)nc3c2F)c1C(F)(F)F [Example 70, (Z)-1-((1R,6S)-3-(7-(6-amino-4-methyl-3-(trifluoromethyl)pyridin-2-yl)-6-chloro-8-fluoro-2-(((4aS,7aR)-1-methyloctahydro-4aH-cyclopenta[b]pyridin-4a-yl)methoxy)quinazolin-4-yl)-3,9-diazabicyclo[4.2.1]nonan-9-yl)-2-fluoro-3-(thiazol-2-yl)prop-2-en-1-one] — within 1.5-fold, 7.9 µM
- CN1CCC[C@H]1COc1nc(N2CCN(C(=O)/C(F)=C/c3nccs3)[C@@H](CC#N)C2)c2ccc(-c3cc(Cl)ccc3OC(F)(F)F)c(F)c2n1 [Example 66, 2-((S)-4-(7-(5-chloro-2-(trifluoromethoxy)phenyl)-8-fluoro-2-(((S)-1-methylpyrrolidin-2-yl)methoxy)quinazolin-4-yl)-1-((Z)-2-fluoro-3-(thiazol-2-yl)acryloyl)piperazin-2-yl)acetonitrile] — 3.1-fold lower, 3.2 µM
- CN1CCC[C@H]1COc1nc(N2CCN(C(=O)/C(F)=C/c3ncccn3)[C@@H](CC#N)C2)c2ccc(-c3cccc4cccc(Cl)c34)c(F)c2n1 [Example 38, 2-((S)-1-((Z)-2-fluoro-3-(pyrimidin-2-yl)acryloyl)-4-(8-fluoro-7-(8-chloronaphthalen-1-yl)-2-(((S)-1-methylpyrrolidin-2-yl)methoxy)quinazolin-4-yl)piperazin-2-yl)acetonitrile] — 75-fold lower, 0.13 µM
- C#Cc1c(F)ccc2cc(O)cc(-c3ccc4c(N5C[C@H]6CC[C@@H](C5)N6C(=O)/C(F)=C/c5ccccn5)nc(OC[C@@H]5CCCN5C)nc4c3F)c12 [Example 22, (Z)-1-((1R,5S)-3-(7-(8-ethynyl-7-fluoro-3-hydroxynaphthalen-1-yl)-8-fluoro-2-(((S)-1-methylpyrrolidin-2-yl)methoxy)quinazolin-4-yl)-3,8-diazabicyclo[3.2.1]octan-8-yl)-2-fluoro-3-(pyridin-2-yl)prop-2-en-1-one] — 38-fold lower, 0.26 µM
